Data taken from patent EP1829539A2, “A method for treating tension-type headache” (priority 1996, dated 1998).
Structures can show the parent of a compound that is named as a salt.

Key:
[1] = system: patients with chronic tension-type headache; test: Open labelled pilot study of prophylactic Dextromethorphan in chronic tension-type headache; assay type: in vivo, human
From the text: Five patients with a diagnosis of chronic tension-type headache according to the International Headache Society (Headache Classification Committee 1988) were recruited from the outpatient headache clinic at Glostrup Hospital. There were 2 males and 3 females, and the mean age was 45.4 years (range 39-48). The mean life time duration of chronic tension-type headache was 12.2 years (range 4-25). One patient had coexisting but infrequent migraine. Exclusion criteria were: daily major medication (including prophylactic headache therapy); abuse of analgesics or alcohol; serious somatic or psychiatric diseases including depression.
Using an open labelled design, patients fulfilled a diagnostic headache diary during at least 4 weeks run-in period to ensure the diagnostic criteria. Thereafter, the patients received Dextromethorphan (Dexofan®) tablets at 30 mg each, three times per day. The treatment period lasted 4 weeks, and during this period patients were asked to continue with headache diaries, and record headache intensity, frequency, duration, any medication taken and any possible adverse events. At a follow up visit at day 29-32, diaries were collected and possible adverse events and evaluation of the treatment were recorded. Due to the restricted number of patients, no statistical analysis were done. The efficacy parameters were headache intensity, frequency and duration, and intake of simple analgesics. Mean values from the run-in period were compared to those obtained during the treatment period.

[2] = system: GABA A; conditions: binding studies; cited from earlier work
[3] = system: alpha-2-subunit of a calcium channel; conditions: Gee et al. 1996; cited from earlier work
[4] = system: patients with chronic tension-type headache; test: Open labelled pilot study of prophylactic Gabapentin in chronic tension-type headache; assay type: in vivo, human
From the text: Three patients with a diagnosis of chronic tension-type headache according to the International Headache Society (Headache Classification Committee 1988) were recruited from the outpatient headache clinic at Glostrup Hospital. The patients were males with a mean age of 42 years (range 35-49). The mean life time duration of chronic tension-type headache was 16 years (range 7-21). […] Exclusion criteria were: daily major medication (including prophylactic headache therapy); abuse of analgesics or alcohol; serious somatic or psychiatric diseases including depression.
Using an open labelled design, patients fulfilled a diagnostic headache diary during at least 4 weeks run-in period to ensure the diagnostic criteria. Thereafter, the patients received Gabapentin (Neurontin®) tablets, initially 300 mg (one tablet) per day on day one, increasing with 300 mg (1 tablet) per day to 900 mg (3 tablets) on day 3. The treatment period lasted 4 weeks, and during this period patients were asked to continue with headache diaries, and record headache intensity, frequency, duration, any medication taken and any possible adverse events. At a follow up visit at day 29-32, diaries were collected and any adverse events and evaluation of the treatment were recorded. Due to the low number of patients, no statistical analysis were done. The primary efficacy parameters were headache intensity, frequency and duration, and the mean values from the run-in period were compared to those obtained during the treatment period.

[5] = system: migraine; conditions: in vivo; cited from earlier work
[6] = system: tension-type headache; conditions: Brennum et al. 1992, 1996; cited from earlier work
[7] = system: patients with chronic tension-type headache; test: Double-blind crossover study of intravenous L-NMMA versus placebo in chronic tension-type headache; assay type: in vivo, human
Protocol: Five patients with coexisting infrequent migraine (≤ one day/month) were accepted. […] At screening, a full physical and neurological examination, including 12-lead ECG were carried out. Blood samples for routine haematological and biochemical testing, and urine sample for urinanalysis were taken. The patients were not allowed to take analgesics 12 hours prior to the treatment. […] All patients gave written informed consent to participate in the study, which was approved by the local ethics committee and conducted in accordance with the Declaration of Helsinki.
Using a double-blind crossover design, the patients were randomised to receive 6 mg/kg L-NMMA (Clinalfa, Switzerland) or placebo (isotone glucose) on two days with a typical episode of tension-type headache separated by at least one week. Randomisation (Med.Stat) and drug preparation were performed by staff not involved in the study. The medication was given over 15 minutes into an antecubital vein (Braun Perfusor). The following parameters were measured at baseline and 15, 30, 60 and 120 minutes post administration: headache intensity on a 100-mm Visual Analog Scale (VAS) (0 - no headache and 100 - worst imaginable headache) and on a Verbal Rating Scale (VRS) from 0-10 (0 - no headache; 5 - moderate headache; 10 - worst imaginable headache). Blood pressure and pulse rate were measured 5 minutes prior to administration of treatment and at 5, 10, 15, 20, 25, 30, 60, 90 and 120 minutes post administration. Twelve-lead ECG was monitored continuously. Any adverse events were recorded. Patients with unrelieved headache at 120 minutes post treatment were allowed to take rescue medication. All patients were asked to record details of the following on a diary card at 4, 8, 12, 16, 20 and 24 hours post administration: headache intensity on VRS, any medication taken and adverse events. Between 4-7 days after each treatment, the patients returned to the clinic, the diary cards were collected and any adverse events were noted.
The secondary endpoints were reduction of pain intensity at 30, 60, 90 and 120 minutes post dosing on VAS and VRS compared to pre-treatment pain score within each treatment. Comparison of pain intensity on VAS, blood pressure and pulse rate over time between treatments were performed with ANOVA. Paired-Samples T Test was used to compare pre-treatment pain score on VAS with pain score at 30, 60, 90, 120 minutes post dosing within each treatment. […] These sums of differences for each treatment were compared by Wilcoxon Signed Rank test. Five percent was accepted as level of significance.

[8] = 0-10 VAS intensity scale, mean, before treatment
[9] = 100-mm VAS, 6 mg/kg L-NMMA i.v. over 15 minutes, mean (SD), p < 0.05 vs pretreatment

With `COc1ccc2c(c1)[C@]13CCCC[C@@H]1[C@H](C2)N(C)CC3` [Dextromethorphan] the “Intensity of headache during active treatment” value ([1]; 0-10 VAS intensity scale, mean) was 3.6, the “Intensity of headache during the run-in period” value [1, 8] was 4.4 and the “Frequency of headache during run-in” value ([1]; before treatment) was 28 days per 4 weeks period. For the same compound, the “Mean intake of analgesics during run-in period” value ([1]; before treatment) was 1.8 dose per day, the “Patients reporting a marked effect” value ([1]; considerable relief of headache intensity and duration within very few days, of 5 patients) was “Two” and the “Frequency of headache during active treatment” value ([1]; in vivo) was 27 days per 4 weeks period. The “Mean intake of analgesics during active treatment” value ([1]; in vivo) was 0.5 dose per day, the “Patients reporting no effect at all” value ([1]; of 5 patients) was “two” and the “Patients reporting no side effects” value ([1]; of 5 patients) was “Four”. The “Patients with a slight relief of headache intensity” value ([1]; of 5 patients) was “one”, the “Patients with marked side effects with sedation” value ([1]; the patient with best clinical response, diminished after dose reduction to 40 mg per day) was “one” and the “Reduction of intensity of headache” value ([1]; treatment period (4 weeks, 30 mg three times per day) vs run-in, 5 patients) was 18%. For the same compound, the “Decrease of frequency of headache” value ([1]; treatment period vs run-in) was 4%, the “Decrease of intake of analgesics” value ([1]; treatment period vs run-in) was 72% and the “Reduction of duration of the individual headache episode” value ([1]; treatment period vs run-in) was 11%.

For `NCC1(CC(=O)O)CCCCC1` [Gabapentin], the “Affinity for GABA A” value [2] is given as “fail to show affinity”, the “Binding affinity to the alpha-2-subunit of a calcium channel” value [3] is given as “showed binding affinity” and the “Headache intensity during active treatment” value ([4]; 0-10 VAS intensity scale, mean, 4 weeks) is given as 3.6. The “Headache intensity during run-in period” value [4, 8] was 5.5, the “Frequency of headache during run-in period” value ([4]; before treatment) was 23.5 days per 4 weeks and the “Mean daily intake of analgesics, run-in” value ([4]; before treatment) was 1.1 dose per day. For the same compound, the “Individual response, one patient” value ([4]; complete relief of the headache after 2 days treatment) was “excellent effect”, the “Side effects in the third patient” value ([4]; disappeared completely after cessation of the drug intake) was “sedation, vertigo and slight nausea” and the “Frequency of headache during the active treatment period” value ([4]; in vivo) was 13 days per 4 weeks. The “Mean daily intake of analgesics, active treatment” value ([4]; in vivo) was 0.3 dose per day, the “Individual response, third patient” value ([4]; on any of efficacy parameters) was “no significant effect” and the “Individual response, another patient” value ([4]; on headache intensity and frequency) was “moderate effect”. For the same compound, the “Decrease of headache intensity” value ([4]; treatment period (4 weeks, up to 900 mg per day) vs run-in, 3 patients) was 35%, the “Decrease of frequency of headache” value ([4]; treatment period vs run-in) was 45% and the “Decrease of mean daily intake of analgesics” value ([4]; treatment period vs run-in) was 72%. The “Reduction of duration of the individual headache episode” value ([4]; treatment period vs run-in) was 8%.

For `CNS(=O)(=O)Cc1ccc2[nH]cc(CCN(C)C)c2c1` [sumatriptan], the Efficacy in migraine [5] is listed as “highly effective” and the “Efficacy in tension-type headache” value [6] is listed as “not effective to a clinically relevant extent”.

For `CNC(=N)NCCC[C@H](N)C(=O)O` [L-NMMA, L- N^G methyl arginine hydrochloride], the “Pain scores on VAS, 30 minutes post dosing” value [7, 9] was 38 ± 18, the “Pain scores on VAS, 60 minutes post dosing” value [7, 9] was 35 ± 18 and the “Pain scores on VAS, 90 minutes post dosing” value [7, 9] was 34 ± 21. For the same compound, the “Pain scores on VAS, 120 minutes post dosing” value [7, 9] was 33 ± 21, the “Pain scores on VAS before treatment (Baseline)” value ([7]; 100-mm VAS, pre-treatment value on the L-NMMA day, 16 patients, mean (SD)) was 49 ± 16 and the “Pain intensity on VRS compared with placebo” value ([7]; Verbal Rating Scale 0-10, sum of differences, Wilcoxon, p=0.02) was “significantly lower after treatment with L-NMMA than after treatment with placebo”. The “Withdrawal from the study because of side effects” value ([7]; in vivo) was “No patients withdrew from the study because of side effects”, the “Maximum decrease in pulse rate” value ([7]; occurred 10 minutes post dosing, 6 mg/kg i.v.) was 16 ± 2% and the “Maximum increase in mean arterial blood pressure (MAP)” value ([7]; occurred 15 minutes post dosing, 6 mg/kg i.v.) was 12 ± 2%. The “Patients reporting subjective symptoms in relation to the infusion” value ([7]; of 16 patients) was “Seven”, the “Subjective symptom: a feeling of tingling in arm (number of patients)” value ([7]; of 16 patients) was 1 and the “Subjective symptom: drowsiness (number of patients)” value ([7]; of 16 patients) was 1. The “Subjective symptom: dryness of the mouth (number of patients)” value ([7]; of 16 patients) was 3, the “Subjective symptom: exhaustion (number of patients)” value ([7]; of 16 patients) was 1 and the “Subjective symptom: nausea (number of patients)” value ([7]; of 16 patients) was 1. For the same compound, the “Subjective symptom: tiredness (number of patients)” value ([7]; of 16 patients) was 2, the “Patients who used simple analgesics as rescue medication” value ([7]; of 16 patients, 7 on placebo) was “Three” and the “Reduction of pain intensity (VAS) over time compared with placebo” value ([7]; primary endpoint, ANOVA, p=0.007, 16 patients, hydrochloride) was “reduced pain intensity (VAS) over time significantly more than placebo”.
